From patent publication US20140248291A1, “Modulation of Cellular Migration” (THE UAB RESEARCH FOUNDATION, priority 2011, published 2014)

What was measured:
[1] = tested on: BK-induced hypotension and plasma extravasation; settings: in vivo; cited from earlier work
[2] = tested on: BK-induced ventral root depolarizations; settings: rat spinal cord and tail preparation, n=3; cited from earlier work
B2 receptor = settings: cited from earlier work
human B1 BK receptor = target: T1, human B1 BK receptor (Homo sapiens, UniProt P46663); settings: cited from earlier work
T1 sequence (P46663 1-353): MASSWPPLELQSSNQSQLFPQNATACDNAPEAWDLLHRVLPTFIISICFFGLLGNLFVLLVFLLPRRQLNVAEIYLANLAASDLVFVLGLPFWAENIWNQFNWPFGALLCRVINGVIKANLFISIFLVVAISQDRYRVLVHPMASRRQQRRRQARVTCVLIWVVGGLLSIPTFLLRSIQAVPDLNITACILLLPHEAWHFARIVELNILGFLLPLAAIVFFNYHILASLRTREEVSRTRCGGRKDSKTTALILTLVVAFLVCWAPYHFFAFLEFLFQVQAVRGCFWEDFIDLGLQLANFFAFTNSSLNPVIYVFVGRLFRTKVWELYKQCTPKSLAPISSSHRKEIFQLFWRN

D54-MG-GFP cells = assay: slice invasion assay, acute rat brain slices; assay type: cell-based, human
Method: Experiments were performed on male and female Sprague-Dawley rats and were approved by the University of Alabama Institutional Animal Care and Use Committee. 17-22 days old pups were decapitated. Meninges were stripped, brain was taken out and put in ice-cold bath ACSF. Tissue was sliced using Vibrotome 3000 sectioning system. 300 μm thick slices were let recover in ACSF for 1 hour at room temperature, followed by recovery in ACSF at 37° C. in […] for 1 hour. CD31 antibody (BD Biosciences, Pharminogen, San Diego, Calif.) that labels blood vessels was added during the latter recovery period. Slices were then transferred into transwell migration cell culture inserts (BD Biosciences, San Jose, Calif.) with 8 μm pores that were pretreated with Vitronectin and blocked as described above. 50,000 D54-EGFP MG cells were then seeded on top of the slices and allowed to migrate/invade into the tissue for 2 hours at 37° C. During that period, slices were treated with 1 μM BK, 1 μM BK+5 μM HOE-140 or 5 μM HOE-140 added to the bottom of migration chamber in order to create a concentration gradient, similar to in vitro migration/invasion assay (FIG. 5C). In control experiments, drug treatment was omitted. Following double washes with PBS, slices were fixed in 4% paraformaldehyde overnight at 4° C. The following day, samples were washed three times with PBS and the slices were mounted between two coverslips for imaging on an Olympus Fluoview confocal microscope with 60× objective.
Having established a dependence of migration and BK in vitro, the role of BK signaling in brain slices was examined, where the presence of neurons, glia and endothelial cells resemble the complex environment more reminiscent of the actual invasions of glioma cells in the human brain. To this end, acute brain slices of rat cortex, that can be maintained viable for many hours of investigation, were incubated with CD31 antibody to label blood vessels and seeded with D54-MG-GFP cells. Cells were allowed to migrate and invade for 2 hours in presence or absence of BK and in presence or absence of B2R antagonist HOE-140. The experimental set-up is illustrated in FIG. 5C. Representative confocal images of glioma cells invading into the slice in the presence of BK with and without antagonist HOE-140 added are shown in FIG. 5A, a, A, b and A, c. […] Similarly, most of the cells remained on the slices when treated only with B2R antagonist, as depicted in 40 μm cross-section in FIG. 5A, f. Data were analyzed by counting the number of glioma cells that attached to blood vessels in the presence of BK (77.4±4.1%, 391 cells analyzed), BK and antagonist HOE-140 (19.3±3.4%, 461 cells analyzed) or antagonist HOE-140 (42.7±4.2%, 452 cells analyzed) and compared with control (53.5±6.3%, 403 cells analyzed) where no drugs were added. […] Another important effect observed was that the glioma cells were invading deeper into the tissue in the presence of BK when compared to controls.

[3] = target: T2, BK receptor in guinea-pig ileum preparations (Cavia porcellus, UniProt O70526); settings: read-out: K1 value, receptor binding; cited from earlier work
T2 construct: from tissue; host or cells: guinea-pig ileum preparations
T2 sequence (O70526 1-372): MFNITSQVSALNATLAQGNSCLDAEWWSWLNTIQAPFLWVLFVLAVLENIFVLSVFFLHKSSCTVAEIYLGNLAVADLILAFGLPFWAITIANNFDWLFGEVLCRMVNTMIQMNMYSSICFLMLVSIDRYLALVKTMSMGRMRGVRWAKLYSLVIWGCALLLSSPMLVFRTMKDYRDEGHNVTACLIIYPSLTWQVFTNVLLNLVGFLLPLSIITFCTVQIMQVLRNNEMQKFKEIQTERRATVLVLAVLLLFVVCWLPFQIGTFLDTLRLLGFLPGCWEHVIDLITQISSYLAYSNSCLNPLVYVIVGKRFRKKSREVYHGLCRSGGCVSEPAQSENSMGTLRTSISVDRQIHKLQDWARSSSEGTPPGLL

SMILES | BK-induced hypotension [1] | BK-induced plasma extravasation [1] | IC50 [2] [nM] | Schild slope (B2 receptor; 45Ca efflux from NG108-15 cells) | pKB, inhibition of B2 receptor-induced 45Ca efflux (B2 receptor; NG108-15 cells, n=5) | interaction with human B1 BK receptor (human B1 BK receptor) | glioma cells attached to blood vessels (D54-MG-GFP cells; 1 μM BK + 5 μM HOE-140, 2 h, 461 cells analyzed) [%] | glioma cells attached to blood vessels (D54-MG-GFP cells; 5 μM HOE-140 alone, 2 h, 452 cells analyzed) [%] | cells migrated up to 15 μm (D54-MG-GFP cells; HOE-140 alone) [%] | cells migrated up to 20 μm (D54-MG-GFP cells; HOE-140 alone) [%] | cells migrated up to 25 μm (D54-MG-GFP cells; HOE-140 alone) [%] | cells on top of the slice (D54-MG-GFP cells; HOE-140 alone) [%] | cells migrated up to 15 μm (D54-MG-GFP cells; HOE-140 in addition to BK) [%] | cells migrated up to 20 μm (D54-MG-GFP cells; HOE-140 in addition to BK) [%] | cells migrated up to 25 μm (D54-MG-GFP cells; HOE-140 in addition to BK) [%] | cells remained on the top of the slice (D54-MG-GFP cells; HOE-140 in addition to BK) [%] | Ki [3] [nM]
CN(C)CCN(C)CCNC(=O)[C@@H]1CCCN1S(=O)(=O)c1ccc(NNC(=S)NC(c2ccccc2)c2ccccc2)c([N+](=O)[O-])c1 [Bradyzide] | blocks | blocks | 1.6 ± 0.05 | 1.05 | 8.0±0.16 | does not interact |  |  |  |  |  |  |  |  |  |  | 
N=C(N)NCCCC(NC(=O)[C@H](N)CCCNC(=N)N)C(=O)N1CCC[C@H]1C(=O)N1C[C@H](O)C[C@H]1C(=O)NCC(=O)N[C@@H](Cc1cccs1)C(=O)N[C@@H](CO)C(=O)N1Cc2ccccc2C[C@@H]1C(=O)N1C2CCCCC2C[C@H]1C(=O)N[C@H](CCCNC(=N)N)C(=O)O (stereo partly drawn) [HOE-140, D-Arg-[Hyp^3, Thi^5, D-Tic^7, Oic^8]bradykinin] |  |  |  |  |  |  | 19.3±3.4 | 42.7±4.2 | 29.8 | 14.4 | 3.5 | 51.9 | 25.7 | 15.4 | 6.4 | 47.5 | 0.798
